In patent US20200187502A1, “MICROBIOCIDAL OXADIAZOLE DERIVATIVES” (SYNGENTA PARTICIPATIONS AG, priority 2017, published 2020):

Columns and labels:
[1] = system: Glomerella lacenarium (Colletotrichum lacenarium); experiment: Fungicidal activity, liquid culture, cucumber preventative (anthracnose); type: cell-based; conditions: 20 ppm in the applied formulation, liquid culture in PDB, inhibition of growth measured photometrically 3 to 4 days after application, compared to untreated control, read-out: disease control
Procedure, shortened: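 Spore-based broth assay: conidia mixed into PDB meet compound from a DMSO solution in 96-well format, incubate at 24° C., then inhibition of growth is determined by photometry 3–4 days later relative to the untreated check.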

[2] = system: Puccinia recondita f. Sp. Tritici; experiment: Fungicidal activity, wheat leaf disc curative (brown rust); type: in vivo; conditions: foliar, 200 ppm in the applied formulation, wheat leaf segments cv. Kanzler, curative (applied 1 day after inoculation), compared to untreated control, 6 to 8 days after application, read-out: disease control
Procedure, shortened: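 Compounds, prepared from DMSO solutions of at most 10 mg/ml and diluted just before spraying, are applied curatively to inoculated Kanzler wheat leaf segments. Segments are incubated at 19° C and 75% RH in a climate cabinet; disease control relative to untreated is evaluated 6 to 8 days later.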

[3] = system: Phakopsora pachyrhizi; experiment: Fungicidal activity, soybean leaf disc preventative (Asian soybean rust); type: in vivo; conditions: foliar, 200 ppm in the applied formulation, soybean leaf disks, compared to untreated control, 12 to 14 days after application, read-out: disease control
Description: Leaf disks or leaf segments of various plant species are cut from plants grown in a greenhouse. The cut leaf disks or segments are placed in multiwell plates (24-well format) onto water agar. The leaf disks are sprayed with a test solution before (preventative) or after (curative) inoculation. Compounds to be tested are prepared as DMSO solutions (max. 10 mg/ml) which are diluted to the appropriate concentration with 0.025% Tween20 just before spraying. The inoculated leaf disks or segments are incubated under defined conditions (temperature, relative humidity, light, etc.) according to the respective test system. A single evaluation of disease level is carried out 3 to 14 days after inoculation, depending on the pathosystem. Percent disease control relative to the untreated check leaf disks or segments is then calculated.
Soybean leaf disks are placed on water agar in multiwell plates (24-well format) and sprayed with the formulated test compound diluted in water. One day after application leaf discs are inoculated by spraying a spore suspension on the lower leaf surface. After an incubation period in a climate cabinet of 24-36 hours in darkness at 20° C. and 75% rh leaf disc are kept at 20° C. with 12 h light/day and 75% rh. The activity of a compound is assessed as percent disease control compared to untreated when an appropriate level of disease damage appears in untreated check leaf disks (12 to 14 days after application).
The following compounds at 200 ppm in the applied formulation give at least 80% disease control in this test when compared to untreated control leaf disks under the same conditions, which show extensive disease development.

[4] = system: Puccinia recondita f. Sp. Tritici; experiment: Fungicidal activity, wheat leaf disc preventative (brown rust); type: in vivo; conditions: foliar, 200 ppm in the applied formulation, wheat leaf segments cv. Kanzler, compared to untreated control, 7 to 9 days after application, read-out: disease control
Procedure, shortened: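 Preventative leaf-segment test: spray application of diluted formulated compound on wheat cv. Kanzler, spore inoculation after 1 day. Percent control relative to untreated segments rated 7 to 9 days post-application, with incubation at 19° C, 75% relative humidity, 12 h photoperiod.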

CON(Cc1ccc(-c2noc(C(F)(F)F)n2)s1)C(=O)C1(C)COC1 [Compound 1.16, N-methoxy-3-methyl-N-[[5-[5-(trifluoromethyl)-1,2,4-oxadiazol-3-yl]-2-thienyl]methyl]oxetane-3-carboxamide]
≥ 80%: inhibition of growth at 20 ppm [1] | pest or weed control at 200 ppm [2] | pest or weed control at 200 ppm [3] | pest or weed control at 200 ppm [4]

CON(Cc1ccc(-c2noc(C(F)(F)F)n2)s1)C(=O)C1CCCO1 (centres unmarked) [Compound 1.17, N-methoxy-N-[[5-[5-(trifluoromethyl)-1,2,4-oxadiazol-3-yl]-2-thienyl]methyl]tetrahydrofuran-2-carboxamide]
≥ 80%: inhibition of growth at 20 ppm [1] | pest or weed control at 200 ppm [2] | pest or weed control at 200 ppm [3] | pest or weed control at 200 ppm [4]

CON(Cc1ccc(-c2noc(C(F)(F)F)n2)s1)C(=O)CC(F)(F)F [Compound 1.18, 3,3,3-trifluoro-N-methoxy-N-[[5-[5-(trifluoromethyl)-1,2,4-oxadiazol-3-yl]-2-thienyl]methyl]propanamide]
≥ 80%: inhibition of growth at 20 ppm [1] | pest or weed control at 200 ppm [2] | pest or weed control at 200 ppm [3] | pest or weed control at 200 ppm [4]

CCC(C)C(=O)N(Cc1ccc(-c2noc(C(F)(F)F)n2)s1)OC (centres unmarked) [Compound 1.19, N-methoxy-2-methyl-N-[[5-[5-(trifluoromethyl)-1,2,4-oxadiazol-3-yl]-2-thienyl]methyl]butanamide]
≥ 80%: inhibition of growth at 20 ppm [1] | pest or weed control at 200 ppm [2] | pest or weed control at 200 ppm [3] | pest or weed control at 200 ppm [4]

CCCC(=O)N(Cc1ccc(-c2noc(C(F)(F)F)n2)s1)OC [Compound 1.21, N-methoxy-N-[[5-[5-(trifluoromethyl)-1,2,4-oxadiazol-3-yl]-2-thienyl]methyl]butanamide]
≥ 80%: inhibition of growth at 20 ppm [1] | pest or weed control at 200 ppm [2] | pest or weed control at 200 ppm [3] | pest or weed control at 200 ppm [4]

CON(Cc1ccc(-c2noc(C(F)(F)F)n2)s1)C(=O)CC1CC1 [Compound 1.22, 2-cyclopropyl-N-methoxy-N-[[5-[5-(trifluoromethyl)-1,2,4-oxadiazol-3-yl]-2-thienyl]methyl]acetamide]
≥ 80%: inhibition of growth at 20 ppm [1] | pest or weed control at 200 ppm [2] | pest or weed control at 200 ppm [3] | pest or weed control at 200 ppm [4]

COCCCC(=O)N(Cc1ccc(-c2noc(C(F)(F)F)n2)s1)OC [Compound 1.23, N,4-dimethoxy-N-[[5-[5-(trifluoromethyl)-1,2,4-oxadiazol-3-yl]-2-thienyl]methyl]butanamide]
≥ 80%: inhibition of growth at 20 ppm [1] | pest or weed control at 200 ppm [2] | pest or weed control at 200 ppm [3] | pest or weed control at 200 ppm [4]

CON(Cc1ccc(-c2noc(C(F)(F)F)n2)s1)C(=O)C(N)=O [Compound 1.24, N′-methoxy-N′-[[5-[5-(trifluoromethyl)-1,2,4-oxadiazol-3-yl]-2-thienyl]methyl]oxamide]
≥ 80%: inhibition of growth at 20 ppm [1] | pest or weed control at 200 ppm [2] | pest or weed control at 200 ppm [3] | pest or weed control at 200 ppm [4]

CON(Cc1ccc(-c2noc(C(F)(F)F)n2)s1)C(C)=O [Compound 1.25, N-methoxy-N-[[5-[5-(trifluoromethyl)-1,2,4-oxadiazol-3-yl]-2-thienyl]methyl]acetamide]
≥ 80%: inhibition of growth at 20 ppm [1] | pest or weed control at 200 ppm [2] | pest or weed control at 200 ppm [3] | pest or weed control at 200 ppm [4]

CON(C(=O)C1CC1)C(C)c1ccc(-c2noc(C(F)(F)F)n2)s1 (centres unmarked) [Compound 1.48, N-methoxy-N-[1-[5-[5-(trifluoromethyl)-1,2,4-oxadiazol-3-yl]-2-thienyl]ethyl]cyclopropanecarboxamide]
≥ 80%: inhibition of growth at 20 ppm [1] | pest or weed control at 200 ppm [2] | pest or weed control at 200 ppm [3] | pest or weed control at 200 ppm [4]

CCNC(=O)N(Cc1ccc(-c2noc(C(F)(F)F)n2)s1)OC [Compound 1.51, 3-ethyl-1-methoxy-1-[[5-[5-(trifluoromethyl)-1,2,4-oxadiazol-3-yl]-2-thienyl]methyl]urea]
≥ 80%: inhibition of growth at 20 ppm [1] | pest or weed control at 200 ppm [2] | pest or weed control at 200 ppm [3] | pest or weed control at 200 ppm [4]

C=CCN(C)C(=O)N(Cc1ccc(-c2noc(C(F)(F)F)n2)s1)OC [Compound 1.52, 1-allyl-3-methoxy-1-methyl-3-[[5-[5-(trifluoromethyl)-1,2,4-oxadiazol-3-yl]-2-thienyl]methyl]urea]
≥ 80%: inhibition of growth at 20 ppm [1] | pest or weed control at 200 ppm [2] | pest or weed control at 200 ppm [3] | pest or weed control at 200 ppm [4]

COCCNC(=O)N(Cc1ccc(-c2noc(C(F)(F)F)n2)s1)OC [Compound 1.53, 1-methoxy-3-(2-methoxyethyl)-1-[[5-[5-(trifluoromethyl)-1,2,4-oxadiazol-3-yl]-2-thienyl]methyl]urea]
≥ 80%: inhibition of growth at 20 ppm [1] | pest or weed control at 200 ppm [2] | pest or weed control at 200 ppm [3] | pest or weed control at 200 ppm [4]

CCN(CC)C(=O)N(Cc1ccc(-c2noc(C(F)(F)F)n2)s1)OC [Compound 1.54, 1,1-diethyl-3-methoxy-3-[[5-[5-(trifluoromethyl)-1,2,4-oxadiazol-3-yl]-2-thienyl]methyl]urea]
≥ 80%: inhibition of growth at 20 ppm [1] | pest or weed control at 200 ppm [2] | pest or weed control at 200 ppm [3] | pest or weed control at 200 ppm [4]

CON(Cc1ccc(-c2noc(C(F)(F)F)n2)s1)C(=O)N1CCC2(CC2)C1 [Compound 1.58, N-methoxy-N-[[5-[5-(trifluoromethyl)-1,2,4-oxadiazol-3-yl]-2-thienyl]methyl]-5-azaspiro[2.4]heptane-5-carboxamide]
≥ 80%: inhibition of growth at 20 ppm [1] | pest or weed control at 200 ppm [2] | pest or weed control at 200 ppm [3] | pest or weed control at 200 ppm [4]

CC(C)(C)OC(=O)NCc1ccc(-c2noc(C(F)(F)F)n2)s1 [Compound 2.1, tert-butyl N-[[5-[5-(trifluoromethyl)-1,2,4-oxadiazol-3-yl]-2-thienyl]methyl]carbamate]
≥ 80%: inhibition of growth at 20 ppm [1] | pest or weed control at 200 ppm [2] | pest or weed control at 200 ppm [3] | pest or weed control at 200 ppm [4]

COCC(=O)NCc1ccc(-c2noc(C(F)(F)F)n2)s1 [Compound 2.3, 2-methoxy-N-[[5-[5-(trifluoromethyl)-1,2,4-oxadiazol-3-yl]-2-thienyl]methyl]acetamide]
≥ 80%: inhibition of growth at 20 ppm [1] | pest or weed control at 200 ppm [2] | pest or weed control at 200 ppm [3] | pest or weed control at 200 ppm [4]
